These results are taken from ChEMBL document CHEMBL6109146, “Discovery of New Pyrazolone Carbothioamide Derivatives as Potent Antifungal Agents for the Treatment of Candidiasis and Cryptococcosis” (J Med Chem, 2025).

Active and inactive are the calls of the source. The rule behind the calls is not given here.

Assay [1] concerns Nakaseomyces glabratus. Put plainly: Fungicidal activity against Candida glabrata 0161 at 32 microg/ml incubated for 48 hrs by time-kill kinetics analysis. It is filed as functional, organism-based. The following applies: dose 32.0 µg/ml.
The subject of assay [2] is Cryptococcus neoformans. Put plainly: Inhibition of biofilm formation in Cryptococcus neoformans H99 at 32 microg/ml incubated for 24 hrs by XTT reagent based assay relative to control. It is filed as functional.
The test system of assay [3] is Nakaseomyces glabratus. Put plainly: Inhibition of matured biofilm in Candida glabrata 0161 at 2 to 32 microg/ml incubated for 24 hrs by XTT reagent based assay. In kind it is functional, organism-based. The following applies: dose 2-32 µg/ml. On the technique in general: Tetrazolium assays rely on reduction of a dye to a coloured formazan, in cell work by metabolically active cells.

Assay [4] deals with Cryptococcus neoformans. Put plainly: Inhibition of matured biofilm in Cryptococcus neoformans H99 at 2 to 32 microg/ml incubated for 24 hrs by XTT reagent based assay. In kind it is functional, organism-based. The following applies: dose 2-32 µg/ml.
Assay [5] has as its system Cryptococcus neoformans. Put plainly: Inhibition of capsule formation in Cryptococcus neoformans H99 at 32 microg/ml incubated for 24 hrs by light microscopic analysis. In kind it is functional, organism-based. Particulars: dose 32.0 µg/ml.
In assay [6] the test system is Cryptococcus neoformans. Put plainly: Inhibition of urease production in Cryptococcus neoformans H99 at 0.031 to 1 microg/ml by photographic analysis relative to control. Particulars: dose 0.031-1 µg/ml. In kind it is functional.
For assay [7], the system named is Cryptococcus neoformans. Put plainly: Inhibition of melanin production in Cryptococcus neoformans H99 at 0.031 to 1 microg/ml by photographic analysis relative to control. In kind it is functional, organism-based. The following applies: dose 0.031-1 µg/ml.
In assay [8] the test system is Cryptococcus neoformans. Put plainly: Induction of morphological changes in Cryptococcus neoformans H99 assessed as cell wall damage at 4 microg/ml incubated for 8 hrs by transmission electron microscopic analysis. It is filed as functional, organism-based. Particulars: dose 4.0 µg/ml.
Assay [9] deals with Cryptococcus neoformans. Put plainly: Induction of morphological changes in Cryptococcus neoformans H99 assessed as nuclei damage at 4 microg/ml incubated for 8 hrs by transmission electron microscopic analysis. In kind it is functional, organism-based. The following applies: dose 4.0 µg/ml.
The test system of assay [10] is Cryptococcus neoformans. Put plainly: Induction of morphological changes in Cryptococcus neoformans H99 assessed as organelle damage at 4 microg/ml incubated for 8 hrs by transmission electron microscopic analysis. In kind it is functional, organism-based. The following applies: dose 4.0 µg/ml.
Assay [11] relates to Cryptococcus neoformans. Put plainly: Induction of ROS accumulation in Cryptococcus neoformans H99 assessed as increase in intracellular ROS level by measuring intense green fluorescence at 4 microg/ml incubated for 24 hrs by DCFH-DA probe based fluorescence microscopic analysis. In kind it is functional, organism-based. Particulars: dose 4.0 µg/ml.
Assay [12] relates to Cryptococcus neoformans. Put plainly: Induction of oxidative damage in Cryptococcus neoformans H99 assessed as increase in MDA level at 4 microg/ml incubated for 24 hrs relative to control. The following applies: dose 4.0 µg/ml. It is filed as functional.
In assay [13] the test system is Cryptococcus neoformans. Put plainly: Effect on intracellular free iron ions level in Cryptococcus neoformans H99 at 4 microg/ml incubated for 24 hrs by absorbance based analysis. It is filed as functional, cell-based. The following applies: dose 4.0 µg/ml.
The subject of assay [14] is Cryptococcus neoformans. Put plainly: Antifungal activity against Cryptococcus neoformans H99 assessed as inhibition of fungal growth in presence of 10% serum containing transferrin-bound ferric iron and free iron. In kind it is functional.
In assay [15] the test system is Cryptococcus neoformans. Put plainly: Antifungal activity against Cryptococcus neoformans H99 assessed as inhibition of fungal growth in presence of Fe(II) ions. In kind it is functional.
The test system of assay [16] is Cryptococcus neoformans. Put plainly: Antifungal activity against Cryptococcus neoformans H99 assessed as inhibition of fungal growth in presence of Fe(III) ions. It is filed as functional.
Assay [17] has as its system Cryptococcus neoformans. Put plainly: Antifungal activity against Cryptococcus neoformans H99 infected in cryptococcosis female ICR mouse model assessed as reduction in pyknosis in neuronal nuclei by measuring reduction in staining at 20 mg/kg, ip pre-infected with fungi for 3 hrs followed by compound administration and measured after 5 days by H and E staining based analysis. In kind it is functional, organism-based. The following applies: time 5.0 day.

Assay [18] deals with Cryptococcus neoformans. Put plainly: Antifungal activity against Cryptococcus neoformans H99 infected in cryptococcosis female ICR mouse model assessed as reduction in cysts formation in brain cortex at 20 mg/kg, ip pre-infected with fungi for 3 hrs followed by compound administration and measured after 5 days by H and E staining based analysis. In kind it is functional, organism-based. Particulars: time 5.0 day.

Assay [19] relates to Candida albicans. Put plainly: Antifungal activity against Candida albicans SC5314 assessed as inhibition of fungal growth incubated for 48 to 72 hrs by microplate reader analysis. In kind it is functional, organism-based. Particulars: time 48-72 hrs.
Assay [20] relates to Candida albicans. Put plainly: Antifungal activity against Candida albicans 103 assessed as inhibition of fungal growth incubated for 48 to 72 hrs by microplate reader analysis. The following applies: time 48-72 hrs. It is filed as functional, organism-based.
Assay [21] relates to Candida albicans. Put plainly: Antifungal activity against Candida albicans 9296 assessed as inhibition of fungal growth incubated for 48 to 72 hrs by microplate reader analysis. In kind it is functional, organism-based. Particulars: time 48-72 hrs.
The test system of assay [22] is [Candida] auris. Put plainly: Antifungal activity against Candida auris 15448 assessed as inhibition of fungal growth incubated for 48 to 72 hrs by microplate reader analysis. It is filed as functional, organism-based. The following applies: Candidozyma auris, time 48-72 hrs.
Assay [23] has as its system [Candida] auris. Put plainly: Antifungal activity against Candida auris 0029 assessed as inhibition of fungal growth incubated for 48 to 72 hrs by microplate reader analysis. In kind it is functional, organism-based. Particulars: Candidozyma auris, time 48-72 hrs.
Assay [24] concerns [Candida] auris. Put plainly: Antifungal activity against Candida auris 0030 assessed as inhibition of fungal growth incubated for 48 to 72 hrs by microplate reader analysis. In kind it is functional, organism-based. Particulars: Candidozyma auris, time 48-72 hrs.
Assay [25] concerns Cryptococcus neoformans. Put plainly: Antifungal activity against Cryptococcus neoformans H99 assessed as inhibition of fungal growth incubated for 48 to 72 hrs by microplate reader analysis. In kind it is functional. Particulars: time 48-72 hrs.
Assay [26] concerns Cryptococcus neoformans. Put plainly: Antifungal activity against Cryptococcus neoformans 011409 assessed as inhibition of fungal growth incubated for 48 to 72 hrs by microplate reader analysis. The following applies: time 48-72 hrs. In kind it is functional.
In assay [27] the test system is Cryptococcus neoformans. Put plainly: Antifungal activity against Cryptococcus neoformans HN-68 assessed as inhibition of fungal growth incubated for 48 to 72 hrs by microplate reader analysis. It is filed as functional. The following applies: time 48-72 hrs.
The test system of assay [28] is Cryptococcus gattii. Put plainly: Antifungal activity against Cryptococcus gattii 01063P assessed as inhibition of fungal growth incubated for 48 to 72 hrs by microplate reader analysis. The following applies: time 48-72 hrs. It is filed as functional.
For assay [29], the system named is Nakaseomyces glabratus. Put plainly: Antifungal activity against Candida glabrata 8535 assessed as inhibition of fungal growth incubated for 48 to 72 hrs by microplate reader analysis. In kind it is functional. Particulars: time 48-72 hrs.
In assay [30] the test system is Nakaseomyces glabratus. Put plainly: Antifungal activity against Candida glabrata 9256 assessed as inhibition of fungal growth incubated for 48 to 72 hrs by microplate reader analysis. In kind it is functional. The following applies: time 48-72 hrs.
Assay [31] has as its system Nakaseomyces glabratus. Put plainly: Antifungal activity against Candida glabrata 0161 assessed as inhibition of fungal growth incubated for 48 to 72 hrs by microplate reader analysis. Particulars: time 48-72 hrs. In kind it is functional.

A word on the inhibition: it is how much of the control response was suppressed. By MIC is commonly meant the lowest concentration found to suppress growth. As for `OC(Cn1cncn1)(Cn1cncn1)c1ccc(F)cc1F` [FLUCONAZOLE], the result in [1], in assay [8], in assay [9], in assay [10], in [11] and in assay [12] was inactive. Also, the result in assay [13], in assay [17] and in assay [18] was inactive. The inhibition at 32 µg/mL in assay [2] is 17%. Further, the inhibition result in assay [3] is given as “Moderate_effect”. For the same molecule, the inhibition result in assay [4], in assay [5], in assay [6] and in [7] was “inactive” in each case. The MIC in assay [14], in assay [15] and in assay [16] was 2 mg/L throughout.
For the molecule `Nc1cc(=O)n(C(=S)Nc2ccc(OC3CCCC3)cc2)[nH]1`, the result in assay [19], in assay [20], in [21], in assay [22], in [23] and in assay [24] was Active. Further, the outcome in [25], in assay [26], in assay [27], in assay [28], in assay [29] and in assay [30] was Active. In addition, the result in assay [31] was Active.
For `Nc1cc(=O)n(C(=S)Nc2ccc3c(c2)COC3=O)[nH]1`, the outcome in assay [19], in [20], in assay [21], in assay [22], in [23] and in assay [24] was inactive. Also, the Activity entry in [25], in [26], in [27], in assay [28], in assay [29] and in [30] was “Not active; Decrease In Activity Observed” in each case. Also, the Activity result in [31] was “Not active; Decrease In Activity Observed”.
For the molecule `CCCCCCc1ccc(NC(=S)N2N=C(N)CCC2=O)cc1`, the result in assay [19], in assay [20], in assay [21], in assay [22], in assay [23] and in assay [24] was inactive. Moreover, the result in assay [25], in assay [26], in assay [27], in assay [28], in assay [29] and in assay [30] was inactive. Also, the outcome in [31] was inactive.
Take `Nc1cc(=O)n(C(=S)Nc2ccc3ncccc3c2)[nH]1`: the Activity entry in assay [19], in [20], in assay [21], in assay [22], in assay [23] and in [24] was “Not active; Decrease In Activity Observed” in each case. Moreover, the outcome in assay [25], in assay [26], in assay [27], in [28], in assay [29] and in assay [30] was Active. In addition, the result in assay [31] was Active.
Take `CNC(=O)c1ccc(NC(=S)n2[nH]c(N)cc2=O)cc1`: the Activity result in [19], in assay [20], in assay [21], in assay [22], in assay [23] and in assay [24] was “Not active; Compound Demonstrated Reduced Activity Compared To Lead Compound 1” throughout. The Activity entry in assay [25], in assay [26], in assay [27] and in [28] was “Not active; Compound Demonstrated Reduced Activity Compared To Lead Compound 1” each time. Also, the outcome in assay [29], in assay [30] and in assay [31] was Active.
On to `Nc1cc(=O)n(C(=S)Nc2ccc(C(F)(F)F)cc2)[nH]1`, for which the Activity entry in assay [19], in [20], in assay [21], in assay [22], in [23] and in assay [24] was “Not active; Compound Demonstrated Reduced Activity Compared To Lead Compound 1” throughout. Moreover, the Activity result in [25], in assay [26], in [27] and in [28] was “Not active; Compound Demonstrated Reduced Activity Compared To Lead Compound 1” each time. In addition, the result in [29], in [30] and in [31] was Active.
On to `Nc1cc(=O)n(C(=S)Nc2cccnc2)[nH]1`, for which the result in [19], in assay [20], in assay [21], in assay [22], in assay [23] and in assay [24] was inactive. In addition, the Activity result in [25], in assay [26], in assay [27], in assay [28], in assay [29] and in assay [30] was “Not active; Decrease In Activity Observed” in each case. In assay [31], the Activity result is “Not active; Decrease In Activity Observed”.
